Legend:
hSERT [1] = target: T1, hSERT (Homo sapiens, UniProt P31645); assay type: binding; settings: increasing concentrations of (R)-citalopram; FIG. 2
T1 construct: expressed in transfected cells; host or cells: HEK293 cells expressing hSERT; membranes
Description: Association rates are determined on membrane preparations from HEK293 cells transiently expressing hSERT. The kinetics of the association of the [^3H]compound- SERT complex is determined after incubation of aliquots consisting of 10 μg membranes from HEK293 cells transiently expressing hSERT and 290 μL [^3H]test compound pre incubated until equilibrium. Association is initiated by addition of radioligand in the absence or presence of R-citalopram (0-300 μM). Bound [^3H]test compound is measured after 0, 2, 5, 10, 15, 20, 30, 50, 70 and 90 minutes.
HEK293 cells expressing hSERT are harvested and 10 μg HEK293-hSERT membrane is placed in each well in a 96 well microtiter plate. […] Concentration of test-compounds is varied from the nM to the μM range. Incubation-time is 0, 2, 5, 10, 15, 20, 30, 50, 70 and 90 minutes on ice or at room temperature (22° C.). Mebranes are harvested in ice-cold ELGA-water onto a GF/C fiberglass filter (Presoaked with 0.5% PEI for 30 min). Filters are rinsed twice with 2×0.5 ml ice-cold ELGA-water. The filters are dried and added 40 L of scintillation fluid.

hSERT [2] = target: T1, hSERT; assay: [3H]-(S)-citalopram dissociation from SERT (allosteric site binding)
Description: The assay procedure was modified based on the methods described in Pharmacol. Toxicol., 80, 197-201, 1997 and J.Neurochem., 92, 21-28, 2005.
PeakRapid 293 cells (Edge Biosystems, Gaithersburg, Md.) were cultured in Dulbecco's Modified Eagle Medium (DMEM) supplemented with 10% bovine calf serum, 4 mM L-glutamine, 100 units/ml penicillin and 100 μg/ml streptomycin) at 37° C., 5% CO2. Human SERT cDNA in a mammalian expression vector was transiently transfected into PeakRapid 293 cells using 10 μg total DNA in 150 cm2 flasks by lipofectamine method (Invitrogen, Carlsbad, Calif.). Two days after transfection, membranes were harvested.
Binding assays were conducted in buffer containing 50 mM Tris, 120 mM NaCl, and 5 mM KCl, PH 7.4. Prior to dissociation binding, [3H]-(S)-citalopram (40 nM) was incubated with hSERT membranes (5 ug/10 ul) for 2 hours at room temperature. The reaction mixture was dispensed into 96 well format minitubes at 10 ul/well and kept on ice. […] Bound ligand was counted using a Trilux counter.
Dissociation binding data were analyzed using GraphPad Prism 4 (GraphPad, San Diego, Calif.) and Xlfit 4 (IDBS, Guildford, Surrey, UK). […] The ratios (k/k0) of the rate (k) in the presence compounds over the rate (k0) in the absence of compounds were calculated for each compound concentration. […]

[3] = test system: extracellular serotonin in the ventral hippocampus; assay: Microdialysis in rats, single administration ± (R)-citalopram; assay type: in vivo, rat; settings: FIG. 3
Description: (§1) Male Sprague-Dawley rats, initially weighing 275-300 g, are used
(§2) Rats are anaesthetised with hypnorm/dormicum (2 ml/kg) and intracerebral guide cannulas (CMA/12) are stereotaxically implanted into the hippocampus, aiming to position the dialysis probe tip in the ventral hippocampus (co-ordinates: 5.6 mm posterior to bregma, lateral −5.0 mm, 7.0 mm ventral to dura or in the frontal cortex (co-ordinates: 3.2 mm anterior to bregma; lateral, 0.8 mm; 4.0 mm ventral to dura). Anchor screws and acrylic cement are used for fixation of the guide cannulas. The body temperature of the animals is monitored by rectal probe and maintained at 37° C. The rats are allowed to recover from surgery for 2 days, housed singly in cages. On the day of the experiment, a microdialysis probe (CMA/12, 0.5 mm diameter, 3 mm length) is inserted through the guide cannula.
(§3) The probes are connected via a dual channel swivel to a microinjection pump. Perfusion of the microdialysis probe with filtered Ringer solution ([…], 3 mM KCl, 1 mM MgCl2, 1.2 mM CaCl2) is begun shortly before insertion of the probe into the brain and continued for the duration of the experiment at a constant flow rate of 1 μL/min. After 180 min of stabilisation, the experiments are initiated. Dialysates were collected every 20 min. […]
(§4) Concentration of 5-HT in the dialysates is analysed by means of HPLC with electrochemical detection. […]

[4] = test system: extra cellular serotonin levels (ventral hippocampus); assay: 3-day microdialysis in rats (minipumps); assay type: in vivo, rat; settings: 4 mg/kg vs 10 mg/kg (S)-citalopram, oxalate salts, FIG. 4
Description: as §1, §2, §3, §4

T1 sequence (P31645 whole entry): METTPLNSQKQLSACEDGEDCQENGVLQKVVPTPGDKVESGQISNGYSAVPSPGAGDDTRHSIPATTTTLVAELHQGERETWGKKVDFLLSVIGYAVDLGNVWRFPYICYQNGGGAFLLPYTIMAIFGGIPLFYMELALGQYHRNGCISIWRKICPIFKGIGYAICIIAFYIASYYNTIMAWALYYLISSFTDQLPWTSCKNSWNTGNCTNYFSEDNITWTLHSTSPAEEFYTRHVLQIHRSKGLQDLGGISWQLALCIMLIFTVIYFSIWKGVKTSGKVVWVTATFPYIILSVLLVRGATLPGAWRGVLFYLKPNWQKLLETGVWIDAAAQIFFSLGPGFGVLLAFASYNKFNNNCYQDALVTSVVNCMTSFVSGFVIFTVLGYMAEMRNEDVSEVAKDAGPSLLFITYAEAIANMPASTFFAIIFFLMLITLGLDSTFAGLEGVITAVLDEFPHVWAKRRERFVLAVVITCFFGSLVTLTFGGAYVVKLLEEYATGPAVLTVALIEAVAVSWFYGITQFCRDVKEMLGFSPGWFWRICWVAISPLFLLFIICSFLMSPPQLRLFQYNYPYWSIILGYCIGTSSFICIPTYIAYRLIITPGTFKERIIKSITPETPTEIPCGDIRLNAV

CNCc1ccccc1Sc1c[nH]c2cc(F)ccc12 [[2-(6-Fluoro-1H-indol-3-ylsulfanyl)-benzyl]-methyl-amine]
effect of (R)-citalopram on association of the [3H] ligand to SERT (hSERT [1]): almost unaffected by (R)-citalopram
slowing of 3H (S)-citalopram dissociation rate (fold modulation) (hSERT [2]; at 200 μM): 5.4 fold
IC50 (hSERT [2]; hSERT membranes, [3H]-(S)-citalopram 40 nM, room temperature, N=2, read-out: IC50 of binding to an allosteric site (from k/k0 of 3H-(S)-citalopram dissociation)): 26 µM
extracellular serotonin in the ventral hippocampus [3]: significant increase
effect of concomitant (R)-citalopram on the increase in extracellular serotonin ([3]; ventral hippocampus): not affected by concomitant administration of (R)-citalopram
increase in serotonin levels compared with (S)-citalopram [4]: faster and more pronounced increase in the serotonin levels than (S)-citalopram

Source: patent publication US20090054510A1, “METHOD FOR IDENTIFYING COMPOUNDS FOR THE TREATMENT OF DEPRESSION” (H. LUNDBECK A/S, priority 2006, published 2009)
